Laboratory results: US11518746B2, “Nitrogen ring linked deoxyuridine triphosphatase inhibitors” (CV6 Therapeutics (NI) Limited, priority 2016, dated 2022)

Experiments:
[1] = test system: colorectal (HCT116 and SW620) cell line models; experiment: MTS growth inhibition assay; format: cell-based; settings: increasing concentrations of 5-FU between 0 and 100 μmol/L
Description: The Cell Titer AQueous MTS assay (Promega) is carried out according to the manufacturers guidelines. […] The combination effect is determined by the combination index (CI) method utilizing Calcusyn software (Biosoft, Ferguson, Mo.). Fraction affected (FA) is calculated from the percent growth inhibition: FA=[…]. CI values <1, synergism; 1-1.2, additive and >1.2, antagonism.
Test compounds are evaluated for their antitumor activity in colorectal cancer cells using the MTS growth inhibition assay. HCT116 and SW620 cells are exposed to increasing concentrations of each agent for 72 hours and growth inhibition is directly compared to vehicle-treated controls. The NSCLC cell lines A549 and H1299 are exposed to increasing concentrations of each agent for 72 hours and growth inhibition is directly compared to vehicle-treated controls.
MTS growth inhibition assays are performed to evaluate the effectiveness of the test compounds alone and in combination with the fluoropyrimidine thymidylate synthase (TS) inhibitor 5-fluorouracil (5-FU) at inhibiting the growth of colorectal (HCT116 and SW620) cell line models. […] Simultaneous treatment with increasing concentrations of 5-FU and a test compound at fixed concentrations of 25 μmol/L is determined.

[2] = molecular target: T1, Recombinant human deoxyuridine nucleotidohydrolase (dUTPase) (Homo sapiens, UniProt P33316); experiment: dUTPase inhibition, fluorescence-based DNA polymerase assay; format: biochemical; settings: for % relative inhibition vs. positive control: mean over three concentrations, typically 100, 50 and 25 μmol/L, compared to in-run positive control
T1 construct: made in house
T1 sequence (P33316 1-164 isoform P33316-2): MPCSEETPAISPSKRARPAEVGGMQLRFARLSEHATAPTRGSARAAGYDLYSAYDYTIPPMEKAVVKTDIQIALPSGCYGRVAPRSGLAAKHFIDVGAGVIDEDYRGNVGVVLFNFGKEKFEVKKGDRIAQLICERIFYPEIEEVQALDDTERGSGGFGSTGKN
Excerpt: Recombinant human deoxyuridine nucleotidohydrolase (dUTPase) is expressed and purified as described in Ladner R D, Carr S A, Huddleston M J, McNulty D E, Caradonna S J. J Biol Chem. 1996 Mar. 29; 271(13):7752-7. All drugs stocks are aliquoted and diluted as appropriate prior to use. The oligonucleotide primer, templates and fluorophore- and quencher-labeled detection probes are synthesized by Integrated DNA Technologies (Coralville, Iowa), subjected to polyacrylamide gel electrophoresis purification and reconstituted in Omnipur sterile nuclease-free water (EMD Chemicals USA, Gibbstown N.J.) at a stock concentration of 100 μmol/L. The two non-emissive (dark) quenching molecules incorporated into the detection probes include the Iowa black fluorescein quencher (IBFQ; absorption max 531 nm) and ZEN (non-abbreviation; absorption max 532 nm). The fluorescent label utilized is 6-FAM (5′-carboxyfluorescein; excitation max.=494 nm, emission max.=520 nm). Probes are further diluted to a working stock of 10 μmol/L and aliquoted to avoid repeated freeze/thaw cycles. AmpliTaq Gold DNA Polymerase, GeneAmp 10×PCR Buffer 2, MgCl2 and MicroAmp Optical 96-well Reaction Plates are purchased from Applied Biosystems (Carlsbad, Calif.). dNTPs are purchased individually at stock concentrations of 100 mmol/L from New England Biolabs at HPLC-certified >99% purity (Ipswich, Mass.).
Reaction mixtures contained primer, probe and template at an equimolar final concentration of 0.4 μmol/L. Magnesium chloride (MgCl2) is included at a final concentration of 2 mmol/L. Non-limiting dNTPs are included in the reaction mix in excess at a final concentration of 100 μmol/L (dUTP/dTTP is excluded). AmpliTaq Gold DNA polymerase is added at 0.875 U/reaction, 2.5 μl of 10×PCR buffer 2 added and nuclease-free ddH2O added to a final reaction volume of 25 μl. […] Thermal profiling and fluorescence detection is performed using a customized thermal program on board a Roche Lightcycler LC480 Instrument II. […] Raw fluorescence spectra for 6-FAM is measured at specified time intervals to follow assay progression on board a Roche LightCycler 480 Software Version 1.5 and exported and analyzed in Microsoft Excel (Microsoft, Redmond Wash.) and Prism (GraphPad Software, La Jolla Calif.). Fluorescence values for blank reactions (limiting dNTP omitted) are subtracted to give normalized fluorescence units (NFU) to account for background fluorescence.
Test compounds are screened in a fluorescence-based assay. […] This displacement effectively disrupts the Förster resonance energy transfer (FRET) and the resulting fluorescence detected upon excitation is directly proportional to the amount of the dUTP available in the assay for incorporation. […]

[3] = test system: colorectal (HCT116), breast (MCF-7) and non-small cell lung (H1299, A549, H358 and H460) cell line models; experiment: Colony forming assay; format: cell-based; settings: increasing concentrations of FUdR between 0.5 and 2.5 μmol/L
Description: Colony forming assay showing the ability of colon (SW620, HCT116), non-small cell lung (A549, H460, H1299 and H358) and breast (MCF7) cancer cells to survive and proliferate following transient 24 hour exposure to test compounds, FUdR and combinations are determined. Specifically, cells are seeded at densities between 50 and 100 cells/well in 24-well plates. Twenty-four hours later, cells are treated with increasing concentrations of a rtest compound, a fixed dose of FUdR and combinations of these. After 24 hours, drug is removed, cells are rinsed and allowed to outgrow for 10-14 days. At the conclusion of the outgrowth, cells are fixed in 60% ice cold methanol and stained with 0.1% crystal violet, scanned and counted. Data is presented as percentage of untreated controls (mean±SD). Fraction affected and combination indexes are calculated according to the method of Chou and Talalay where <1 is indicative of a synergistic drug interaction.
Colony forming assays are performed to evaluate the effectiveness of test compounds alone and in combination with the fluoropyrimidine thymidylate synthase (TS) inhibitor fluorodeoxyuridine (FUdR) at reducing cancer cell viability in colorectal (HCT116), breast (MCF-7) and non-small cell lung (H1299, A549, H358 and H460) cell line models. […]

| SMILES | % relative inhibition vs. positive control [2] | other results |
| --- | --- | --- |
| O=c1[nH]cc(F)c(=O)[nH]1 [Example 5-FU, 5-fluorouracil] |  | growth inhibition [1]: dose-dependent increases in growth inhibition |
| O=C1CN(CCCC(=O)N2CCC[C@H]2C(O)(c2ccccc2)c2ccccc2)C(=O)N1 [Example 79, (5)-1-(4-(2-(hydroxydiphenylmethyl)pyrrolidin-1-yl)-4-oxobutyl)imidazolidine-2,4-dione] | 75% | IC50 [2]: 1 µM |
| COc1ccc(NCCCS(=O)(=O)N2CCCC2C(C)c2ccc(F)c(OCC3CC3)c2)c(=O)[nH]1 (stereo not drawn) [Example 80, 3-((3-((2-(1-(3-(cyclopropylmethoxy)-4-fluorophenyl)ethyl)pyrrolidin-1-yl)sulfonyl)propyl)amino)-6-methoxypyridin-2(1H)-one] | 22% |  |
| CC(c1ccc(F)c(OCC2CC2)c1)C1CCCN1S(=O)(=O)CCCNC1CCC(=O)NC1=O (stereo not drawn) [Example 82, 3-((3-((2-(1-(3-(cyclopropylmethoxy)-4-fluorophenyl)ethyl)pyrrolidin-1-yl)sulfonyl)propyl)amino)piperidine-2,6-dione] | 13% |  |
| O=c1[nH]c(=O)n([C@H]2C[C@H](O)[C@@H](CO)O2)cc1F [FUdR, fluorodeoxyuridine] |  | colonies formed [3]: dose-dependent decreases in colonies formed |
